Data published in patent US20250064733A1, “USE OF PEG-BASED INTERPOLYMER COMPLEXES FOR IMPROVED SOLUBILIZATION F BCS CLASS II DRUGS” (Dow Global Technologies LLC, priority 2022, published 2025).

Assay: Apparent aqueous solubility of drug in 1% polymer solution (30 min standing, centrifugation, HPLC of supernatant)
Type: physicochemical
Settings: water without polymer; reference value for the increase; read-out: aqueous probucol solubility
Method: The following materials are used. The polyacrylic acid (PAA) has a molecular weight of about 1800, the polyethylene glycol used has either a molecular weight of 4000 or 8000 (as indicated in Table I below). The API chosen is either Probucol (>98% purity) or Ketoprofen (>98% purity). Each polymer or polymer combination shown in Table 1 is added to water in an amount to form 1% polymer solutions. Concentrated API solutions in methanol are prepared by adding 0.2 grams of drug to 10 ml of methanol (20 g/L of drug in methanol).
For each example in Table 1, 912 μl of the indicated polymer solution is transferred into individual vials. Then, 48 μl of drug solution in methanol is added to the polymer solution. These mixtures are agitated via three cycles of aspiration and dispensing using the EVO 200 pipettes. […]
The solubilized drug concentration in each taken aliquot was determined by reverse phase high-performance liquid chromatography (HPLC) analysis. […]
The drug concentration is determined from the measured elution profile by using a linear calibration curve for the respective drug, which was generated by determining the least squares fit of a straight line that described the relation between the concentration of four solutions of known concentrations (about 250, 500, 750, and 1000 mg/L) and the respective peak area integral after injection of 2 μL of each drug in methanol. […]

solubility at 30 min: 0.042 µg/mL
Structure (SMILES): CC(C)(Sc1cc(C(C)(C)C)c(O)c(C(C)(C)C)c1)Sc1cc(C(C)(C)C)c(O)c(C(C)(C)C)c1 [control, Probucol]
